# Tests used:
# [1] = tested on: glucose-derived fatty acid (FA) synthesis; assay: metabolism of D-[1,6-13C2] glucose into fatty acids via NMR mass spectrometry; format: cell-based
# Excerpt: The molecular mechanisms by which CIC affects proliferation were examined. The function of CIC has been primarily linked to glucose-derived fatty acid (FA) synthesis, because of its role in citrate export. Therefore, the metabolism of D-[1,6-^13C2] glucose via NMR mass spectrometry was studied. […] Thus, depletion of lipids unlikely represents the only mechanism by which CIC inhibition affects tumor growth.
# lactate = lactate levels in treated cells; format: cell-based
# Description: (§1) The concentration of citrate, lactate, isocitrate, and malate were assessed using specific kits from BioVision (Milpitas, Calif.). Cellular ATP levels were determined via the ATP kit (Promega; Fitchburg, Wis.), while oxygen consumption rates were measured using the BD oxygen biosensor systems (OBS) from BD Bioscience (Franklin Lakes, N.J.). Triplicate samples of 50,000 cells were seeded onto 96-well OBS plates. The number of cells was determined at each time point by sampling cells seeded into side-by-side plates. Fluorescence was measured from the bottom of the well every 24 h and measurements were normalized by subtracting the reading from the same well prior to the addition of the cells (blank). For measurement of reactive oxygen species (ROS), H2DCFDA was used (Invitrogen). Mitochondrial mass was assessed by using mitotracker green (Invitrogen), as per manufacturer instructions, or nonyl acridine orange at a final concentration of 300 nM, followed by analysis by flow cytometry. Mitochondrial membrane potential (MMP) was studied with the JC1 assay kit from Cayman Chemical (Ann Arbor, Mich.).
# [2] = tested on: lung cancer H1299 cell lines; assay: tumor xenograft, lung cancer H1299 cells in nude mice; format: in vivo, female athymic balbc/nude mice; conditions: BTA 26 mg/kg intra-peritoneal three times a week
# Description: (§2) To produce tumor xenografts, 5×10^6 cells were resuspended in PBS and injected subcutaneously in the flanks of female nude mice. […] Mice were pre-treated twice prior to the inoculation of tumor cell lines. Once detectable tumors started to form, their size was measured with a caliper in three dimensions. Serial measurements were made at two-three day intervals after the identification of the initial cellular mass to determine growth curves in vivo. Tumor volume was calculated using the formula for a prolate spheroid: volume=(4/3)×a^2b, where a is the width and b is the length. All animals were sacrificed when the tumors exceeded 1.5 cm. At the completion of experiments, tumors were excised, weighed and statistical significance of differences in tumor volume were made using two factor repeated measures analysis of variance followed by Fisher's last significant difference test for multiple comparisons.
# H1299 cells [3] = assay: cell viability by trypan blue exclusion in H1299 cells; format: cell-based, human; conditions: 1 mM BTA, trypan blue exclusion (FIG. 2D)
# Description: Negative values are due to subtraction of background rates. […] Cell viability was assessed with trypan blue exclusion.
# Cells were grown in Dulbecco's modified Eagle's medium (DMEM, 5 mM glucose, with glutamine and pyruvate from Invitrogen; Carlsbad, Calif.) and supplemented with 10% fetal calf serum (FCS). Early passage cell lines or frozen pellets were used for screening of CIC expression levels (FIG. 1A). All the reagents for the study of complex I activity were purchased from Sigma-Aldrich (St. Louis, Mo.). The CIC specific shRNA vectors were purchased from Origene Technologies (Rockville, Md.). The vectors expressing human CIC untagged or Flag-Myc epitope tagged were also from Origene. The anti-CIC antibody was obtained from Santa Cruz Biotech (Santa Cruz, Calif.), employed at 1:1000 dilution in immuno-blot and at 1:100 in immuno-fluorescence; the anti-mHsp70 and anti-mitofilin antibody were from Novus Biological (Littleton, Colo.) employed at 1:500 in immuno-fluorescence and 1:1000 in immuno-blot; for the LC3 immuno-blot, a mixture of two antibodies was used each at 1:1000 dilution (Novus Biological). The LAMP-1 antibody was from Abcam (Cambridge, UK). The sequences of primers used were: the human cytochome c oxidase: forward: 5′-[…]-3′ (SEQ. ID NO: 1); Reverse:5′ […]-3′ (SEQ. ID NO: 2). […]
# CIC = target: T1, CIC (Homo sapiens, UniProt P53007); conditions: in vivo; cited from earlier work
# T1 construct: citrate levels in cells expressing endogenous CIC (nM/well) were assessed in 293T cell lines harboring the pcDNA/TO vector; endogenous in cells; host or cells: 293T cells harbouring the empty pcDNA/TO vector
# T1 sequence (P53007 14-311): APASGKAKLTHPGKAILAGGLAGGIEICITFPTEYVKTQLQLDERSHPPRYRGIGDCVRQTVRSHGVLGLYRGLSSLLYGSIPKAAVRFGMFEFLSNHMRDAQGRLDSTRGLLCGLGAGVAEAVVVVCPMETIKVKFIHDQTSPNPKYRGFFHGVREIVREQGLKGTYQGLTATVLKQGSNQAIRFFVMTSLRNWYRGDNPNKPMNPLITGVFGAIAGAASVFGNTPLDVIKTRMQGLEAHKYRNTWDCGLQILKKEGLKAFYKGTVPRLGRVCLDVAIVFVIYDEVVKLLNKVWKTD
# MDA-MB-231 cells = assay: dose dependent growth inhibition of BTA in MDA-MB-231 cells; format: cell-based, human; conditions: MBA-MD-231 cells, BTA dose response (FIG. 2B)
# Description: Cells were grown in Dulbecco's modified Eagle's medium (DMEM, 5 mM glucose, with glutamine and pyruvate from Invitrogen; Carlsbad, Calif.) and supplemented with 10% fetal calf serum (FCS). Early passage cell lines or frozen pellets were used for screening of CIC expression levels (FIG. 1A). All the reagents for the study of complex I activity were purchased from Sigma-Aldrich (St. Louis, Mo.). The CIC specific shRNA vectors were purchased from Origene Technologies (Rockville, Md.). The vectors expressing human CIC untagged or Flag-Myc epitope tagged were also from Origene. The anti-CIC antibody was obtained from Santa Cruz Biotech (Santa Cruz, Calif.), employed at 1:1000 dilution in immuno-blot and at 1:100 in immuno-fluorescence; the anti-mHsp70 and anti-mitofilin antibody were from Novus Biological (Littleton, Colo.) employed at 1:500 in immuno-fluorescence and 1:1000 in immuno-blot; for the LC3 immuno-blot, a mixture of two antibodies was used each at 1:1000 dilution (Novus Biological). The LAMP-1 antibody was from Abcam (Cambridge, UK). The sequences of primers used were: the human cytochome c oxidase: forward: 5′-[…]-3′ (SEQ. ID NO: 1); Reverse:5′ […]-3′ (SEQ. ID NO: 2). The zebrafish NADH-dehydrogenase: forward: 5′-[…]-3′ (SEQ. ID NO: 3); reverse:5′ […]-3′ (SEQ. ID NO: 4). The zebrafish p53: forward: 5′-ACATGA […]-3′ (SEQ. ID NO: 5); Reverse: 5′ […] 3′ (SEQ. ID NO: 6).
# mitochondrial mass = assay: mitochondrial content by mitofilin and Nonyl-Acridine Orange (NOA); format: cell-based
# Description: as §1
# LC3 = assay: immuno-fluorescence and cellular sub-fractionation for LC3 recruitment to mitochondria; format: cell-based
# Description: ATP (Panel B) and Oxygen consumption levels (Panel C) in cells cultured in 5 mM glucose and mock treated (DMSO, Control) or treated with BTA, or in cells expressing CIC or CIC-DN, 16 hours after treatments. […] The percentages of cells distributed in the G1-, S-, or G2-phases of the cells cycle are shown. Apoptotic cells are identified as the Sub-G1 (SG) population. […] Cells were stained with anti-Flag (green, panels 1 and 4) and anti-LC3 (red, panels 2 and 5) antibodies, and counterstained with DAPI. Merged images are shown in panels 3 and 6. […]
# Cells were grown in Dulbecco's modified Eagle's medium (DMEM, 5 mM glucose, with glutamine and pyruvate from Invitrogen; Carlsbad, Calif.) and supplemented with 10% fetal calf serum (FCS). […] The anti-CIC antibody was obtained from Santa Cruz Biotech (Santa Cruz, Calif.), employed at 1:1000 dilution in immuno-blot and at 1:100 in immuno-fluorescence; the anti-mHsp70 and anti-mitofilin antibody were from Novus Biological (Littleton, Colo.) employed at 1:500 in immuno-fluorescence and 1:1000 in immuno-blot; for the LC3 immuno-blot, a mixture of two antibodies was used each at 1:1000 dilution (Novus Biological). […]
# H1299 cells [4] = assay: cell cycle analysis of H1299 cells under glucose restriction; format: cell-based, human; conditions: glucose restriction (2 mM Glucose), 1 mM BTA
# Description: ATP (Panel B) and Oxygen consumption levels (Panel C) in cells cultured in 5 mM glucose and mock treated (DMSO, Control) or treated with BTA, or in cells expressing CIC or CIC-DN, 16 hours after treatments. […] The percentages of cells distributed in the G1-, S-, or G2-phases of the cells cycle are shown. Apoptotic cells are identified as the Sub-G1 (SG) population. […] Cells were stained with anti-Flag (green, panels 1 and 4) and anti-LC3 (red, panels 2 and 5) antibodies, and counterstained with DAPI. Merged images are shown in panels 3 and 6. The results of these immunofluorescence experiments were confirmed with cellular sub-fractionation experiments shown in Panel F. Cytoplasmic (c) and mitochondrial (m) fractions derived from naïve 293T cells (lanes 1,2) or 293T cells expressing CIC (lanes 3,4) or CIC-DN (lanes 5,6) or treated with BTA (lanes 7,8), were probed with anti-CIC, anti-LC3, or anti-mitofilin antibodies, as indicated. The two arrows in the LC3 blot indicate cytosolic (-I) or activated (-II) LC3 forms. […] All images shown were derived from the same autoradiogram at identical times of exposures, but lanes in between samples of interest were eliminated. […] The anti-mitofilin, anti-p62 (employed as a general autophagic marker), anti-CIC, or anti LC3 specific immuno-blots are shown.
# [5] = cell death by trypan blue exclusion in BTA-treated cells with or without rescue agents; format: cell-based
# [6] = tested on: breast cancer MDA-MB-231 cells; assay: tumor xenograft, breast cancer MDA-MB-231 cells in nude mice; format: in vivo, female athymic balbc/nude mice; conditions: MDA-MB-231 xenograft, BTA 26 mg/kg intra-peritoneal three times a week, single agent
# Description: as §2
# [7] = tested on: bladder cancer cells derived from T24 cells; assay: tumor xenograft, bladder cancer cells derived from T24 in nude mice; format: in vivo, female athymic balbc/nude mice; conditions: BTA 26 mg/kg intra-peritoneal three times a week
# Description: as §2
# [8] = Description: To produce tumor xenografts, 5×10^6 cells were resuspended in PBS and injected subcutaneously in the flanks of female nude mice. For drug treatments, mice were randomized to receive either PBS or a PBS solution of BTA at a concentration 26 mg/kg which was administered via intra-peritoneal route three times a week. Mice were pre-treated twice prior to the inoculation of tumor cell lines. Once detectable tumors started to form, their size was measured with a caliper in three dimensions. Serial measurements were made at two-three day intervals after the identification of the initial cellular mass to determine growth curves in vivo. Tumor volume was calculated using the formula for a prolate spheroid: volume=(4/3)×a^2b, where a is the width and b is the length. All animals were sacrificed when the tumors exceeded 1.5 cm. At the completion of experiments, tumors were excised, weighed and statistical significance of differences in tumor volume were made using two factor repeated measures analysis of variance followed by Fisher's last significant difference test for multiple comparisons. The trial administration of BTA to explore its toxic effects, was conducted on 8 non immuno-compromised mice, randomized in two groups, and injected for five consecutive months. Animals were monitored once a week for the presence of signs of disease, particularly neurological disturbances or weight loss, and they were weighted periodically.
compound,measurement,setting,value
"O=C(O)c1cccc(C(=O)O)c1C(=O)O [BTA, 1,2,3-benzenetricarboxylic acid]",total FA levels,[1]; 16 hours after BTA treatment,modestly reduced
same,ability of cells to convert glucose into FA,"[1]; D-[1,6-13C2] glucose",severely reduced the ability of cells to convert glucose into FA
same,total FA levels,[1]; later time points after BTA treatment,increased
same,levels of glucose-derived lactate,lactate,enhanced the levels of glucose-derived lactate
same,anti-cancer activity (tumor volume),[2],exhibited anti-cancer activity
same,cell growth / viability,H1299 cells [3],growth inhibition
same,CIC-dependent transport of citrate,CIC,suppresses CIC-dependent transport of citrate
same,proliferation rates,MDA-MB-231 cells,decreased proliferation rates in a dose-dependent manner
same,mitochondrial quantity (mitofilin),mitochondrial mass; time course following BTA treatment (FIG. 5G),reduction of mitochondrial quantity as a function of time
same,LC3-II in the mitochondrial fraction,"LC3; 293T cells treated with BTA, sub-fractionation immuno-blot (FIG. 5F lane 8)",enrichment of LC3-II in the mitochondria
same,recruitment of active-lipidated LC3 and lysosomes to the mitochondria,LC3; cells treated with BTA,recruitment of the autophagic machinery
same,apoptosis (Sub-G1 population),H1299 cells [4],induction of apoptosis
same,viability of treated cells,[5]; cells treated with BTA,loss of viability
same,anti-cancer activity (tumor volume),[6],exhibited anti-cancer activity
same,anti-cancer activity (tumor volume),[7],exhibited anti-cancer activity
same,evidence of illness or toxicity,"[8]; mouse, in vivo",no evidence of illness or toxicity
same,evidence of toxicity,"[8]; mouse, in vivo",without showing any evidence of toxicity
same,body weight,"[8]; non immuno-compromised mice, BTA twice a week for five consecutive months",small but statistically significant reduction of the body weight
"Cn1cnc(N)c2ncnc1-2 [Compound 3MA, 3-Methyladenine, reference compound]",mitochondrial amount (NOA) in BTA-treated cells,mitochondrial mass; 5 mM 3MA added to BTA-treated cells (FIG. 6A),restored mitochondrial amount
"CC(=O)N[C@@H](CS)C(=O)O [NAC, N-acetyl-cysteine]",prevention of loss of viability in cells treated with BTA,[5]; 5 mM methyl-pyruvate or 2 mM NAC added to BTA-treated cells (FIG. 5A),partially prevented loss of viability
CCCCCCCCCCCCCCCC(=O)O [palmitic acid],rescue of proliferation of BTA-treated cells,[5]; incubation of BTA-treated cells with palmitic acid,not sufficient to rescue proliferation
